The text below walks through data of patent publication US20070238757A1, “NOVEL TREATMENT” (SmithKline Beecham p.l.c., priority 2000, published 2007).

This assay has as its system rat primary hippocampal neurons. As to the kind of experiment: Neurite outgrowth assay in primary hippocampal neurons. Particulars: 48 hours, FIG. 2. In kind it is cell-based. On the procedure:
The hippocampi of gestational day 18 rat embryos were dissected out, incubated in trypsin (0.08%, 30 min at 37° C.) and dissociated mechanically (Skaper et al., 19990). Hippocampal cells were resuspended in neurobasal medium supplemented with B27, anti-oxidants, 1 mM glutamine, 25 μM glutamate, 1 mM pyruvate, +/−Compound 1 (10 nM-5 μM) or vehicle (DMSO) control.
For outgrowth assays, cells were plated at a density of 3000 cells/well into 96 well dishes that had previously been coated with poly-D-lysine followed by 10% FCS. For RNA isolation, cells were plated at 1×10^6 cells/well into a 35 mm tissue culture dish that had previously been coated with poly-D-lysine followed by 10% FCS.
Compound (I) was solubilised in DMSO and added to culture medium at time of cell plating at a dilution of 1:1000. Vehicle only (1:1000) was added to culture medium of untreated controls. […] Assays were quantified using a KS300 image analysis system (Imaging Associates, UK). For each cell measured, the length from the edge of the cell to the end of the longest neurite was measured for 100 cells/well for each treatment in triplicate. […] Results are expressed as a percentage of the length of neurites of cells treated with vehicle alone.
# Compound (I) at 0.01 and 0.05 μM has been analysed in one experiment only (n=3)

Molecules are shown by their SMILES.

Consider `CN(CCOc1ccc(CC2SC(=O)NC2=O)cc1)c1ccccn1` (centres unmarked) [Compound (I), 5-(4-[2-(N-methyl-N-(2-pyridyl)amino)ethoxy]benzyl)-2,4-thiazolidinedione], for which the “neurite outgrowth (effect in words)” value (10 nM-5 μM added at time of cell plating) is listed as “increases neurite outgrowth in rat primary hippocampal neurons in a dose dependant manner”. The “increase of neurite outgrowth over untreated controls” value (Compound at 100 nM, length of longest neurite relative to cells treated with vehicle (DMSO) alone) is reported as “approx. 50%”.
